Among the data in ChEMBL document CHEMBL1146465, “Three new oleanane-type triterpenes from Ludwigia octovalvis with cytotoxic activity against two human cancer cell lines” (J Nat Prod, 2004) are IC50 values, retold here.

One experiment has as its system KB. Put plainly: Cytotoxicity against human KB cells after 72 hrs by methylene blue assay. Type of experiment: functional, cell-based.
The test system of another experiment is HT-29. The experiment in a line: Cytotoxicity against human HT-29 cells after 72 hrs by methylene blue assay. The following applies: HT-29, 72 h. In kind it is functional, cell-based.

By IC50 is commonly meant the midpoint of a concentration-inhibition curve. Lower therefore signals greater potency in that assay. With `CC1(C)CC[C@]2(C(=O)O)CC[C@]3(C)C(=CC[C@@H]4[C@@]5(C)CC[C@H](O)[C@@](C)(COC(=O)/C=C/c6ccc(O)cc6)[C@@H]5CC[C@]43C)[C@@H]2C1`, the IC50 came out at 1300 nM in the experiment on KB and 2400 nM in the experiment with HT-29.

Take `CC1(C)CC[C@]2(C(=O)O)CC[C@]3(C)C(=CC[C@@H]4[C@@]5(C)CC[C@H](OC(=O)/C=C\c6ccc(O)cc6)[C@@](C)(CO)[C@@H]5CC[C@]43C)[C@@H]2C1`: the values for the IC50 in the experiment with KB and with HT-29 were 1200 nM and 2100 nM, respectively.

Turning to `COc1cc([C@@H]2c3cc4c(cc3[C@@H](O[C@@H]3O[C@@H]5CO[C@@H](C)O[C@H]5[C@H](O)[C@H]3O)[C@H]3COC(=O)[C@H]23)OCO4)cc(OC)c1O` [ETOPOSIDE], the IC50 in the experiment with KB amounted to 1100 nM; with HT-29, 2300 nM.

Consider `CC1(C)CC[C@]2(C(=O)O)CC[C@]3(C)C(=CC[C@@H]4[C@@]5(C)CC[C@H](O)[C@@](C)(COC(=O)/C=C\c6ccc(O)cc6)[C@@H]5CC[C@]43C)[C@@H]2C1`, for which the IC50 in the experiment on KB is 1600 nM; in the experiment on HT-29, 3600 nM.
